Converted amounts (≈) assume the structure as drawn. Where two headings read alike, the source gives them in different places.
Tests used:
[1] = tested on: clinically isolated strains of MRSA; assay: Antibacterial MIC spectra against 50 clinically isolated strains of MRSA; assay type: cell-based, methicillin-resistant Staphylococcus aureus; conditions: Staphylococcus aureus; for MIC50: 50% of the 50 MRSA strains inhibited, read-out: MIC50; for MIC: range over 50 clinically isolated strains of MRSA, read-out: Antibacterial MIC spectra
Protocol: (§1) Minimum growth inhibitory concentrations (MIC) of each of 2"-amino-2"-deoxyarbekacin (Compound Ia), 2"-amino-5,2"-dideoxyarbekacin (Compound Ib), 2"-amino-2"-deoxydibekacin (Compound IIa) and 2"-amino-5,2"-dideoxydibekacin (Compound IIb) against various bacteria (20 strains) and against clinically isolated strains of MRSA (50 strains) were determined by standard serial dilution method on Muller-Hinton's agar medium (as estimated after cultivating at 27° C. for 18 hours), and the test results obtained are shown in TABLE 3 and TABLE 4, respectively.
Note:- MIC50 or MIC90 represents the concentration of tested
active compound at which 50% or 90% of the total numbers of the bacterial
strains tested were inhibited from their growth. DKB denotes dibekacin,
(§2) Minimum growth inhibitory concentrations (MIC) of each of 2"-amino-5,2"-dideoxy-5-epi-fluoroarbekacin (Compound XVIa) and 2"-amino-5,2"-dideoxy-5-epi-aminoarbekacin (Compound XVIb) against various bacteria (18 strains) and against clinically isolated strains of MRSA (50 strains) were determined by standard serial dilution method on Muller-Hinton's agar medium (as estimated after cultivation at 27° C. for 18 hours), and the test results obtained are shown in TABLE 5 and TABLE 6, respectively.

[2] = tested on: strain of MRSA which exhibits a moderate resistance to arbekacin; assay: Minimum growth inhibitory concentration against MRSA strain moderately resistant to arbekacin; assay type: cell-based, methicillin-resistant Staphylococcus aureus; conditions: Staphylococcus aureus, read-out: minimum growth inhibitory concentration of arbekacin
Bacillus subtilis PCI219 = assay: MIC by standard serial dilution method on Muller-Hinton's agar; assay type: cell-based; conditions: Table 3, 27° C., 18 hours
Protocol: as §1, §2

E. coli JR66/W677 = assay: as above; assay type: cell-based; conditions: Escherichia coli, JR66/W677, 18 h
Protocol: as §1, §2

E. coli K-12 LA290 R55 = assay: as above; assay type: cell-based; conditions: Escherichia coli, K12LA290R55, 18 h
Protocol: as §1, §2

E. coli K-12 ML1629 = assay: as above; assay type: cell-based; conditions: Escherichia coli, K12ML1629; Table 3; 27° C., 18 hours; read-out: MIC
Protocol: as §1, §2

Escherichia coli NIHJ = assay: as above; assay type: cell-based; conditions: Table 3, 27° C., 18 hours
Protocol: as §1, §2

[3] = tested on: Klebsiella pneumoniae PCI602; assay: as above; assay type: cell-based; conditions: PCI602, Table 3, 27° C., 18 hours, read-out: MIC
Protocol: as §1, §2

P. aeruginosa H9 = assay: as above; assay type: cell-based; conditions: Pseudomonas aeruginosa, H9; Table 3; 27° C., 18 hours; read-out: MIC
Protocol: as §1, §2

P. aeruginosa PST1 = assay: as above; assay type: cell-based; conditions: Pseudomonas aeruginosa, Table 3, 27° C., 18 hours
Protocol: as §1, §2

P. aeruginosa TI-13 = assay: as above; assay type: cell-based; conditions: Pseudomonas aeruginosa, TI13, 18 h
Protocol: as §1, §2

Proteus vulgaris OX19 = assay: as above; assay type: cell-based; conditions: OX19, Table 3, 27° C., 18 hours, read-out: MIC
Protocol: as §1, §2

[4] = tested on: Providencia rettgeri GN311; assay: as above; assay type: cell-based; conditions: GN311, Table 3, 27° C., 18 hours, read-out: MIC
Protocol: as §1, §2

[5] = tested on: Pseudomonas aeruginosa A3; assay: as above; assay type: cell-based; conditions: A3, Table 3, 27° C., 18 hours, read-out: MIC
Protocol: as §1, §2

S. aureus Smith = assay: as above; assay type: cell-based; conditions: Staphylococcus aureus; Table 3; 27° C., 18 hours
Protocol: as §1, §2

S. epidermidis 109 = assay: as above; assay type: cell-based; conditions: Staphylococcus epidermidis, 109; Table 3; 27° C., 18 hours; read-out: MIC
Protocol: as §1, §2

Salmonella typhi T-63 = assay: as above; assay type: cell-based; conditions: Salmonella enterica, Table 3, 27° C., 18 hours
Protocol: as §1, §2

Serratia marcescens = assay: as above; assay type: cell-based; conditions: Table 3, 27° C., 18 hours, read-out: MIC
Protocol: as §1, §2

[6] = tested on: Shigella dysenteriae JSI1910; assay: as above; assay type: cell-based; conditions: JSI1910, 18 h
Protocol: as §1, §2

[7] = tested on: Staphylococcus aureus FDA209P; assay: as above; assay type: cell-based; conditions: Table 3, 27° C., 18 hours
Protocol: as §1, §2

B. cereus ATCC10702 = assay: as above; assay type: cell-based; conditions: Bacillus cereus, ATCC10702; Table 3; 27° C., 18 hours; read-out: MIC
Protocol: as §1

E. coli K-12 ML1410 = assay: as above; assay type: cell-based; conditions: Escherichia coli, K12ML1410; Table 3; 27° C., 18 hours
Protocol: as §1

[8] = Acute toxicity, single intravenous administration to mice; assay type: in vivo; conditions: mouse, in vivo, iv
Text: (§3) 50% Lethal dosages (LD50, observations for two weeks) of the new compounds of this invention as estimated upon single intravenous administration to mice (ICR-strain, 4 weeks old, female) are as follows:
(§4) 50% Lethal dosages (LD50, observations for two weeks) of the new compounds of general formula (XVI) according to the seventh aspect of this invention as estimated upon single intravenous administration to mice (ICR-strain, 4 weeks old, female) are as follows: […]

mice = assay: as above; assay type: in vivo; conditions: mice / mammals
Text: as §3, §4

Solubility in water = assay type: physicochemical
[9] = tested on: gram-positive and gram-negative bacteria; assay: Antibacterial activities against gram-positive and gram-negative bacteria; assay type: cell-based
Protocol: as §1, §2

Work on NCC[C@H](O)C(=O)N[C@@H]1C[C@H](N)[C@@H](O[C@H]2O[C@H](CN)CC[C@H]2N)[C@H](O)[C@H]1O[C@H]1O[C@H](CO)[C@@H](O)[C@H](N)[C@H]1O [ABK, (S)-1-N-(4-amino2-hydroxybutyryl)dibekacin, reference compound] yielded an MIC50 ([1]; 27° C., 18 hours) of 0.39 µg/mL (≈ 0.706 µM), an MIC90 ([1]; 90% of the 50 MRSA strains inhibited, 27° C., 18 hours, read-out: MIC90) of 6.25 µg/mL (≈ 11.3 µM) and an MIC ([1]; 27° C., 18 hours) of 0.2 to 6.25 µg/mL (≈ 0.362 to 11.3 µM). For the same compound, the MIC [2] was 6.25 to 12.5 µg/mL (≈ 11.3 to 22.6 µM).
NCC[C@H](O)C(=O)N[C@@H]1C[C@H](N)[C@@H](O[C@H]2O[C@H](CN)CC[C@H]2N)C[C@H]1O[C@H]1O[C@H](CO)[C@@H](O)[C@H](N)[C@H]1N [Compound Ib, 2"-Amino-5,2"-dideoxyarbekacin] showed an MIC (Bacillus subtilis PCI219) of at most 0.2 µg/mL, an MIC (E. coli JR66/W677) of 3.13 µg/mL (≈ 5.84 µM) and an MIC (E. coli K-12 LA290 R55) of 0.78 µg/mL (≈ 1.46 µM). For the same compound, the MIC (E. coli K-12 ML1629) was 1.56 µg/mL (≈ 2.91 µM), the MIC (Escherichia coli NIHJ) was 0.39 µg/mL (≈ 0.728 µM) and the MIC [3] was 0.78 µg/mL (≈ 1.46 µM). The MIC (P. aeruginosa H9) was 3.13 µg/mL (≈ 5.84 µM), the MIC (P. aeruginosa PST1) was 6.25 µg/mL (≈ 11.7 µM) and the MIC (P. aeruginosa TI-13) was 1.56 µg/mL (≈ 2.91 µM). The MIC (Proteus vulgaris OX19) was 0.78 µg/mL (≈ 1.46 µM), the MIC [4] was 0.78 µg/mL (≈ 1.46 µM) and the MIC [5] was 0.39 µg/mL (≈ 0.728 µM). For the same compound, the MIC (S. aureus Smith) was at most 0.2 µg/mL, the MIC (S. epidermidis 109) was 0.39 µg/mL (≈ 0.728 µM) and the MIC (Salmonella typhi T-63) was 0.78 µg/mL (≈ 1.46 µM). It also gave an MIC (Serratia marcescens) of 6.25 µg/mL (≈ 11.7 µM), an MIC [6] of 1.56 µg/mL (≈ 2.91 µM) and an MIC [7] of at most 0.2 µg/mL. For the same compound, the MIC (B. cereus ATCC10702) was 0.78 µg/mL (≈ 1.46 µM), the MIC (E. coli K-12 ML1410) was 1.56 µg/mL (≈ 2.91 µM) and the MIC90 ([1]; MRSA, 18 h) was 1.56 µg/mL (≈ 2.91 µM). For the same compound, the MIC50 ([1]; 27° C., 18 hours) was 0.78 µg/mL (≈ 1.46 µM), the MIC ([1]; 27° C., 18 hours) was 0.2 to 3.13 µg/mL (≈ 0.373 to 5.84 µM) and the LD50 at 336 h [8] was 50 to 100 mg/kg. The “acute toxicity (in words)” value (mice) was “higher acute toxicity to mice than that of 2"-amino-2"-deoxyarbekacin”, the Solubility (Solubility in water) was “easily soluble in water” and the “antibacterial activity (in words)” value [9] was “broad and excellent antibacterial activity”.

Source: patent US5618795A, “Dibekacin derivatives and arbekacin derivatives active against resistant bacteria, and the production thereof” (Zaidan Hojin Biseibutsu Kagaku Kenkyu Kai, priority 1992, dated 1997)
